# Target: T1, HDAC6 enzyme (Homo sapiens, UniProt Q9UBN7)
# T1 construct: transducing full length HDAC6 gene into Sf-9 insect cells; GST; purchased SignalChem; host or cells: Sf-9 insect cells
# T1 sequence (Q9UBN7 1-1215): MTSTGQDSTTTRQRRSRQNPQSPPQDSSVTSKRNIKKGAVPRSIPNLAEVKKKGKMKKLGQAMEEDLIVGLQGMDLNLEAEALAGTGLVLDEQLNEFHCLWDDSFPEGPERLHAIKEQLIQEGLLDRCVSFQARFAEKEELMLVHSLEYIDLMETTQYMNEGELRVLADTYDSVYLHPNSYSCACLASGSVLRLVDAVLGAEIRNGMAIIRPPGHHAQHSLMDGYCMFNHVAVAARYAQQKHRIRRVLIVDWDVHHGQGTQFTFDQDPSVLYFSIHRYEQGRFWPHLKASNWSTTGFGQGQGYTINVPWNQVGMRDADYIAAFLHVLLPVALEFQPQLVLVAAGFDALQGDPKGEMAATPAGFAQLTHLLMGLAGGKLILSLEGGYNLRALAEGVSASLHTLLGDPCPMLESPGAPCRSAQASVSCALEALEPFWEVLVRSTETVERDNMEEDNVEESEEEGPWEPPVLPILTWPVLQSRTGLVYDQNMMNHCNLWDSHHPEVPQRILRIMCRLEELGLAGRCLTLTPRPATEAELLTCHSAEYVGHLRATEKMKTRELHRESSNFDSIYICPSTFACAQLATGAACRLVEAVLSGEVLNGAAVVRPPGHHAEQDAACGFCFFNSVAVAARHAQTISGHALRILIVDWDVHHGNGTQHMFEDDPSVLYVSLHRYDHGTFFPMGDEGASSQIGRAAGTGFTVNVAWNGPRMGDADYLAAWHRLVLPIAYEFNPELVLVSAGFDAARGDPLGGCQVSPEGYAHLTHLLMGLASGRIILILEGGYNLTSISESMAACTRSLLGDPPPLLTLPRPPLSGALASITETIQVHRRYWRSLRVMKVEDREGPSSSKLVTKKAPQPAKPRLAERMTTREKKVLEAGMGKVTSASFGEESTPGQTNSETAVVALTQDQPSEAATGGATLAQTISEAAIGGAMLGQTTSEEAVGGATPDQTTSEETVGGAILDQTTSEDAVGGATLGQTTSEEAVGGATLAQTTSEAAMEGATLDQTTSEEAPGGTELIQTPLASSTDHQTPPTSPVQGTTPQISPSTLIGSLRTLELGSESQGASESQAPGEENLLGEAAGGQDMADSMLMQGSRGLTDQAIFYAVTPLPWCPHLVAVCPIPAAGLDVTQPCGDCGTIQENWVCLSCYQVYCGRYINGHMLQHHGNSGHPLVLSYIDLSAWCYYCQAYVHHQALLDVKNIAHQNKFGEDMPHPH
# Experiment: HDAC6 enzyme inhibitory activity (HDAC-Glo I/II Assay kit)
# Format: biochemical
# Settings: 10 μM; wells without enzyme = 100% inhibition; read-out: HDAC6 inhibitory rate (%) (10 μM)
# Summary of the method: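 Full-length human HDAC6 (GST-purified, Sf-9 expressed) preincubated with compound 60 min at room temperature in Tris-HCl pH 7.5 buffer with MgCl2, KCl, NaCl, glutathione, Tween-20. HDAC-Glo I/II substrate-developer then added, 20 min room temperature, luminescence read. Inhibition relative to no-enzyme wells as 100%.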
row,inhibition at 10 µM [%],SMILES
1,100,"CS(=O)(=O)c1cccc(CN2Cc3ccc(-c4nnc(C(F)F)o4)cc3C2=O)c1 [Example 145, 6-(5-(difluoromethyl)-1,3,4-oxadiazol-2-yl)-2-(3-(methylsulfonyl)benzyl)isoindolin-1-one]"
2,94,"O=C1c2cc(-c3nnc(C(F)F)o3)ccc2CN1Cc1cc(C2CC2)on1 [Example 146, 2-((5-cyclopropyl-1,2-oxazol-3-yl)methyl)-6-(5-(difluoromethyl)-1,3,4-oxadiazol-2-yl)isoindolin-1-one]"
3,93,"O=C1c2cc(-c3nnc(C(F)F)o3)ccc2CN1Cc1ncc(F)cc1F [Example 147, 6-(5-(difluoromethyl)-1,3,4-oxadiazol-2-yl)-2-((3,5-difluoropyridin-2-yl)methyl)isoindolin-1-one]"
4,99,"CC(C)(C)OC(=O)N[C@@H]1CCCC[C@H]1N1Cc2c(F)cc(-c3nnc(C(F)F)o3)cc2C1=O [Example 148, tert-butyl ((1R,2R)-2-(6-(5-(difluoromethyl)-1,3,4-oxadiazol-2-yl)-4-fluoro-1-oxo-1,3-dihydro-2H-isoindol-2-yl)cyclohexyl)carbamate]"
5,102,"O=C1c2cc(-c3nnc(C(F)F)o3)cnc2CN1[C@@H]1CCCC[C@H]1NC(=O)C1(C(F)(F)F)CC1 [Example 149, N-((1R,2R)-2-(3-(5-(difluoromethyl)-1,3,4-oxadiazol-2-yl)-5-oxo-5,7-dihydro-6H-pyrrolo[3,4-b]pyridin-6-yl)cyclohexyl)-1-(trifluoromethyl)cyclopropanecarboxamide]"
6,97,"O=C(N[C@@H]1CCCC[C@H]1N1Cc2ncc(-c3nnc(C(F)F)o3)cc2C1=O)OC1CC1 [Example 150, cyclopropyl ((1R,2R)-2-(3-(5-(difluoromethyl)-1,3,4-oxadiazol-2-yl)-5-oxo-5,7-dihydro-6H-pyrrolo[3,4-b]pyridin-6-yl)cyclohexyl)carbamate]"
7,98,"O=C1c2cc(-c3nnc(C(F)F)o3)ccc2CN1Cc1ccc(F)cc1 [Example 151, 6-(5-(difluoromethyl)-1,3,4-oxadiazol-2-yl)-2-(4-fluorobenzyl)isoindolin-1-one]"
8,99,"CC(=O)N[C@@H]1CCCC[C@H]1N1Cc2c(F)cc(-c3nnc(C(F)F)o3)cc2C1=O [Example 152, N-((1R,2R)-2-(6-(5-(difluoromethyl)-1,3,4-oxadiazol-2-yl)-4-fluoro-1-oxo-1,3-dihydro-2H-isoindol-2-yl)cyclohexyl)acetamide]"
9,100,"COC(=O)N[C@@H]1CCCC[C@H]1N1Cc2c(F)cc(-c3nnc(C(F)F)o3)cc2C1=O [Example 153, methyl ((1R,2R)-2-(6-(5-(difluoromethyl)-1,3,4-oxadiazol-2-yl)-4-fluoro-1-oxo-1,3-dihydro-2H-isoindol-2-yl)cyclohexyl)carbamate]"
10,98,"CNC(=O)O[C@@H]1CCCC[C@H]1N1Cc2ccc(-c3nnc(C(F)F)o3)cc2C1=O [Example 154, (1R,2R)-2-(6-(5-(difluoromethyl)-1,3,4-oxadiazol-2-yl)-1-oxo-1,3-dihydro-2H-isoindol-2-yl)cyclohexyl methylcarbamate]"
11,95,"O=C1c2cc(-c3nnc(C(F)F)o3)cc(F)c2CN1Cc1ccccn1 [Example 155, 6-(5-(difluoromethyl)-1,3,4-oxadiazol-2-yl)-4-fluoro-2-(pyridin-2-ylmethyl)isoindolin-1-one]"
12,100,"COc1ccccc1-c1ccccc1N1Cc2ccc(-c3nnc(C(F)F)o3)cc2C1=O [Example 156, 6-(5-(difluoromethyl)-1,3,4-oxadiazol-2-yl)-2-(2′-methoxybiphenyl-2-yl)isoindolin-1-one]"
13,98,"CN1CCN([C@@H]2CCCC[C@H]2N2Cc3ccc(-c4nnc(C(F)F)o4)cc3C2=O)C1=O [Example 157, 6-(5-(difluoromethyl)-1,3,4-oxadiazol-2-yl)-2-((1R,2R)-2-(3-methyl-2-oxoimidazolidin-1-yl)cyclohexyl)isoindolin-1-one]"
14,100,"Cc1cc(-c2ccccc2N2Cc3ccc(-c4nnc(C(F)F)o4)cc3C2=O)n(C)n1 [Example 158, 6-(5-(difluoromethyl)-1,3,4-oxadiazol-2-yl)-2-(2-(1,3-dimethyl-1H-pyrazol-5-yl)phenyl)isoindolin-1-one]"

# Second part, the molecule before the results:
row,SMILES,inhibition at 10 µM [%]
1,"COc1ccc(-c2ccccc2N2Cc3ccc(-c4nnc(C(F)F)o4)cc3C2=O)cc1 [Example 134, 6-(5-(difluoromethyl)-1,3,4-oxadiazol-2-yl)-2-(4′-methoxybiphenyl-2-yl)isoindolin-1-one]",101
2,"O=C1c2cc(-c3nnc(C(F)F)o3)cc(F)c2CN1Cc1ccccc1 [Example 136, 2-benzyl-6-(5-(difluoromethyl)-1,3,4-oxadiazol-2-yl)-4-fluoroisoindolin-1-one]",99
3,"O=C1CCCCN1[C@@H]1COCC[C@H]1N1Cc2c(F)cc(-c3nnc(C(F)F)o3)cc2C1=O [Example 137, 6-(5-(difluoromethyl)-1,3,4-oxadiazol-2-yl)-4-fluoro-2-((3S,4R)-3-(2-oxopiperidin-1-yl)tetrahydro-2H-pyran-4-yl)isoindolin-1-one]",98
4,"O=C1OCCN1[C@@H]1CCCC[C@H]1N1Cc2c(F)cc(-c3nnc(C(F)F)o3)cc2C1=O [Example 138, 6-(5-(difluoromethyl)-1,3,4-oxadiazol-2-yl)-4-fluoro-2-((1R,2R)-2-(2-oxo-1,3-oxazolidin-3-yl)cyclohexyl)isoindolin-1-one]",98
5,"O=C1c2cc(-c3nnc(C(F)F)o3)cnc2CN1Cc1ccccc1 [Example 139, 6-benzyl-3-(5-(difluoromethyl)-1,3,4-oxadiazol-2-yl)-6,7-dihydro-5H-pyrrolo[3,4-b]pyridin-5-one]",100
6,"C[C@H](c1ccc(F)cc1)N1Cc2ncc(-c3nnc(C(F)F)o3)cc2C1=O [Example 140, 3-(5-(difluoromethyl)-1,3,4-oxadiazol-2-yl)-6-((1R)-1-(4-fluorophenyl)ethyl)-6,7-dihydro-5H-pyrrolo[3,4-b]pyridin-5-one]",100
7,"C[C@@H](c1ccc(F)cc1)N1Cc2ncc(-c3nnc(C(F)F)o3)cc2C1=O [Example 141, 3-(5-(difluoromethyl)-1,3,4-oxadiazol-2-yl)-6-((1S)-1-(4-fluorophenyl)ethyl)-6,7-dihydro-5H-pyrrolo[3,4-b]pyridin-5-one]",100
8,"O=C(N[C@@H]1CCCC[C@H]1N1C(=O)c2ccc(-c3nnc(C(F)F)o3)cc2C1=O)OCc1ccccc1 [Example 142, benzyl ((1R,2R)-2-(5-(5-(difluoromethyl)-1,3,4-oxadiazol-2-yl)-1,3-dioxo-1,3-dihydro-2H-isoindol-2-yl)cyclohexyl)carbamate]",99
9,"O=C1c2cc(-c3nnc(C(F)F)o3)ccc2CN1Cc1ncccc1Cl [Example 143, 2-((3-chloropyridin-2-yl)methyl)-6-(5-(difluoromethyl)-1,3,4-oxadiazol-2-yl)isoindolin-1-one]",95
10,"O=C1c2cc(-c3nnc(C(F)F)o3)ccc2CN1Cc1cncc(C(F)(F)F)c1 [Example 144, 6-(5-(difluoromethyl)-1,3,4-oxadiazol-2-yl)-2-((5-(trifluoromethyl)pyridin-3-yl)methyl)isoindolin-1-one]",97

# — US10435399B2, “HDAC6 inhibitory heterocyclic compound” (TAKEDA PHARMACEUTICAL COMPANY LIMITED, priority 2017, dated 2019)
